Assay results from patent publication US10966996B2, “Glechoma longitube extract, preparation method for same, and use thereof in sugar reduction, weight loss, and lipid reduction” (SHANGHAI INSTITUTE OF MATERIA MEDICA CHINESE ACADEMY OF …, priority 2014, dated 2021).
One block for each compound: values may come before it.

Legend:
Assay type in all cases: biochemical
porcine pancrelipase = molecular target: T1, porcine pancrelipase (Sus scrofa, UniProt P00591); assay: inhibitory activity against pancrelipase (p-Nitrophenyl acetate substrate); conditions: 10 μM
T1 construct: purchased Sigma
T1 sequence (P00591 1-450): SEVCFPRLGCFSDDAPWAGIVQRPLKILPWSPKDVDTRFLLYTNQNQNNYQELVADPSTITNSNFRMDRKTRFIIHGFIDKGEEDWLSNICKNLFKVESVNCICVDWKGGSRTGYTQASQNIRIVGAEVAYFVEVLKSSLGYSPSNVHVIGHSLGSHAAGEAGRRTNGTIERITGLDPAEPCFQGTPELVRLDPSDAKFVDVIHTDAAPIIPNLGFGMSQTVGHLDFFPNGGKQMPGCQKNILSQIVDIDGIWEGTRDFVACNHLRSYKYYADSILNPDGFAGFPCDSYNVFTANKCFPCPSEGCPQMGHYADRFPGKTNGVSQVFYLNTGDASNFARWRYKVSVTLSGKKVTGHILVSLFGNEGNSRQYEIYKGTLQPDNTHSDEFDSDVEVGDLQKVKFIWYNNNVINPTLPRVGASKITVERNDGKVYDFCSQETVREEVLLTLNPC
Source text: (§1) OD compound, OD blank, and OD negative control represented the fluorescence values from a compound well, a blank well, and a negative control well free of DGAT1 enzyme, and the concentrations of the compounds when the enzyme activity inhibition rate (%) reached 50% were set as IC50 value; (3) inhibitory activity of the individual compounds separated from the extract of Glechoma longituba (Nakai) Kupr., LQC-H-1, against pancrelipase: substrate p-Nitrophenyl acetate (Sigma, USA) was formulated to 1.35 mM with phosphate buffer (25 mM, pH 6.8); porcine pancrelipase (Sigma) was formulated to 10 mg/ml with phosphate buffer; brominated eneyne compounds were formulated to solutions of different concentrations with phosphate buffer. Then, 50 μl of 1.35 mM p-Nitrophenyl acetate (Sigma, USA) solution and 10 μl of test compounds of different concentrations were sequentially added into a 96-well plate and pre-incubated at 37° C. for 5 mins. Finally, 50 μl of 10 mg/ml pancrelipase (EC 3.1.1.3, Sigma, USA) was added and mixed. The reaction proceeded at 37° C. for further 20 mins Absorbance of each well was measured at 492 nm. The inhibition rates (%) of the test samples against pancrelipase were calculated based on the absorbance at 492 nm. The concentrations of the compounds when then enzyme activity inhibition rate (%) reached 50% was set as IC50 value. The inhibition rate (%) could be calculated according to the following formula: Inhibition rate (%)=[(A−B)−(C−D)]/(A−B)×100
In the above formula, A, B, C, and D represented the absorbance of a blank well after the reaction, the absorbance of a blank well prior to the reaction, the absorbance of a sample well after the reaction, and the absorbance of a sample well prior to the reaction.

glucose oxidase (GOX) = molecular target: T2, glucose oxidase (GOX) (Homo sapiens, UniProt Q9UJM8); assay: inhibitory activity against glucose oxidase (GOX), enzyme coupling method with glycolic acid substrate; set-up: Vmax: unit not given here
T2 sequence (Q9UJM8 1-370): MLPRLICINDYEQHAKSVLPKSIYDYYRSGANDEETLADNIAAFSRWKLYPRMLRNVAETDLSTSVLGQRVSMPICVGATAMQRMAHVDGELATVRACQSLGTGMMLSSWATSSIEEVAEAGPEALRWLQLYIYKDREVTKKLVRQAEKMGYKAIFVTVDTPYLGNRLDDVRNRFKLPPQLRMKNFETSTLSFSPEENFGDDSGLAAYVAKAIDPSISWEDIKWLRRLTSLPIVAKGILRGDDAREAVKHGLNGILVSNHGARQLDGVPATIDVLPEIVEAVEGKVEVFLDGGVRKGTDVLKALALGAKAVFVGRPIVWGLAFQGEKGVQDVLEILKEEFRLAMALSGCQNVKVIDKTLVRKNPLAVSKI
Procedure: Mechanism of experiment: enzyme coupling method utilizes peroxidase (POD) and substrates thereof to react with generated H2O2 to produce colored products so as to determine the catalytic reaction rate of glucose oxidase. POD catalyzes H2O2 to react with phenol and 4-amino antipyrine to produce brown-red quinone substances.
Experimental method: reagents were added according to the table below; the reaction was immediately initiated upon the final addition of substrate glycolic acid; the kinetic course of the reaction was detected by microplate reader; the enzyme activity was represented by Vmax, maximum reaction velocity.
The measurement results were fitted by Graphpad Prism 5.0 to calculate IC50 values.

hDGAT1 = molecular target: T3, hDGAT1 (Homo sapiens, UniProt O75907); assay: inhibitory activity against hDGAT1 (CPM fluorescence)
T3 construct: made in house; host or cells: insect cells
T3 sequence (O75907 1-488): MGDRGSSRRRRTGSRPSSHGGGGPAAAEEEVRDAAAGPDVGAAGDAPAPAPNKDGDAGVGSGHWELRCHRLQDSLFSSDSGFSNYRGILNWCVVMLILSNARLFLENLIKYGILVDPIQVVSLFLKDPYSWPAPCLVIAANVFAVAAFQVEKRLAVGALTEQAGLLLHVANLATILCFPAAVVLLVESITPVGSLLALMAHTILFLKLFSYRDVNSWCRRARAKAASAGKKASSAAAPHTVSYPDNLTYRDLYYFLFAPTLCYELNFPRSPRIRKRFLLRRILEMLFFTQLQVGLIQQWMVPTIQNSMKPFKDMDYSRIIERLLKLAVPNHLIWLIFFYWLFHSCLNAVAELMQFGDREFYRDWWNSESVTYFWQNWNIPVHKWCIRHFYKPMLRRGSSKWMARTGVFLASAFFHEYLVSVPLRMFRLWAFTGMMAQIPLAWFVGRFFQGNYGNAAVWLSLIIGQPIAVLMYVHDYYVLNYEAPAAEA
Procedure: Experimental method: (1) the effect of the extract of Glechoma longituba (Nakai) Kupr., LQC-H-1, on serum triglyceride level was evaluated in acute hypertriglyceridemic mouse model; 6-week old male C57BL/KsJ mice (Shanghai Slac Laboratory Animal Company), 8 for each group, weight of 20±2 g, were fed according to SPF grade operation procedure and fasted overnight for 16 hours prior to experiment. Compounds of different concentrations were intragastric administrated to each administration group of mice, respectively. Equal volume of water was given to control group and blank group of mice. 30 mins later, 2 g/kg olive oil was intragastric administrated to administration group and control group of mice, while equal volume of water was given to blank group of mice. 2 hours later, blood was collected from orbital vein of each group of mice for the separation of serum, and concentration of triglyceride in the serum was measured; (2) inhibitory activity of the individual compounds separated from the extract of Glechoma longituba (Nakai) Kupr., LQC-H-1, against diacylglycerol acyltransferase (DGAT): human derived DGAT1 obtained by expression and purification with insect cells were pre-incubated together with the compounds, substrate diacylglycerol was added to initiate the reaction in the presence of coenzyme A, fluorescence signal generated by the combination of produced sulfydryl and CPM was measured, and the inhibitory activity of the compound against DGAT was calculated according to the following formula: Inhibition rate %=(OD blank−OD compound)/(OD blank−OD negative control)*100%
as §1

Inhibition rate % (10 μM) against pancrelipase (porcine pancrelipase): 83.96%
Structure (SMILES): CCCCCCCCCCC[C@@H](C[C@@H]1OC(=O)[C@H]1CCCCCC)OC(=O)[C@H](CC(C)C)NC=O [Olistat, reference compound]

Vmax (glucose oxidase (GOX); 0.1 μM): 34.68 ± 0.06
inhibition at 0.1 µM (glucose oxidase (GOX); 0.1 μM, read-out: Inhibition rate): 2.82 ± 0.16%
Vmax (glucose oxidase (GOX); 0.3 μM): 34.66 ± 0.20
inhibition at 0.3 µM (glucose oxidase (GOX); 0.3 μM, read-out: Inhibition rate): 2.87 ± 0.57%
Vmax (glucose oxidase (GOX); 1 μM): 33.85 ± 0.55
inhibition at 1 µM (glucose oxidase (GOX); 1 μM, read-out: Inhibition rate): 5.12 ± 1.53%
Vmax (glucose oxidase (GOX); 3 μM): 30.21 ± 0.12
inhibition at 3 µM (glucose oxidase (GOX); 3 μM, read-out: Inhibition rate): 15.3 ± 0.32%
Vmax (glucose oxidase (GOX); 10 μM): 26.55 ± 0.15
inhibition at 10 µM (glucose oxidase (GOX); 10 μM, read-out: Inhibition rate): 25.6 ± 0.41%
Vmax (glucose oxidase (GOX); 30 μM): 16.54 ± 0.12
inhibition at 30 µM (glucose oxidase (GOX); 30 μM, read-out: Inhibition rate): 53.66 ± 0.34%
Vmax (glucose oxidase (GOX); 100 μM): −1.40 ± 8.87
inhibition at 100 µM (glucose oxidase (GOX); 100 μM, read-out: Inhibition rate): 104 ± 24.9%
IC50 (glucose oxidase (GOX); fitted by Graphpad Prism 5.0): 21 µM
Structure (SMILES): O=c1c(O)c(-c2ccc(O)c(O)c2)oc2cc(O)cc(O)c12 [Quercetin, reference compound]

Inhibition rate (%) (10 μM) against hDGAT1 (hDGAT1; 10 μM): 83.36%
Inhibition rate (%) (50 μM) against hDGAT1 (hDGAT1; 50 μM): 97.51%
Structure (SMILES): O=C(Nc1ccccc1)Nc1ccc(-c2ccc(C(=O)[C@@H]3CCC[C@H]3C(=O)O)cc2)cc1 [A 922500, reference compound]
